# Measured values published in ChEMBL document CHEMBL1130322, “Anticancer and antiviral effects and inactivation of S-adenosyl-L-homocysteine hydrolase with 5'-carboxaldehydes and oximes synthesized from adenosine and sugar-modified analogues” (J Med Chem, 1997).
# Experiments:
# CCRF-CEM = test: cells; details: Homo sapiens
# Vero [1] = test: cells; details: Chlorocebus sabaeus
# Human betaherpesvirus 5 [2] = test: microbe, parasite or virus in culture
# [3] = test system: Respiratory syncytial virus; test: microbe, parasite or virus in culture; details: human respiratory syncytial virus, HeLa
# Adenosylhomocysteinase [4] = molecular target: T1, Adenosylhomocysteinase (Homo sapiens, UniProt P23526)
# Target sequence in this assay (P23526 whole entry): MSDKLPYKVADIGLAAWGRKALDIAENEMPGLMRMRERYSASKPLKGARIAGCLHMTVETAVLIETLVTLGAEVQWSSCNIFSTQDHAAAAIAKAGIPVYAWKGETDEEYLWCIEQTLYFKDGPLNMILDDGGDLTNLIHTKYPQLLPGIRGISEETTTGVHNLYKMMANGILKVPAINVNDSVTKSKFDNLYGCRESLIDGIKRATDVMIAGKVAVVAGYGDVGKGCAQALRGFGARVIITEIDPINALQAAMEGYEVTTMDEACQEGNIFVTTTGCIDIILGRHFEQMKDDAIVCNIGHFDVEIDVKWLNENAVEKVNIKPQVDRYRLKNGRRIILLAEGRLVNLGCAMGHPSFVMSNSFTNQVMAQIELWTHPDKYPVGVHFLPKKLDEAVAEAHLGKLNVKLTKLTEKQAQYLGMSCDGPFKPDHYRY
# HeLa [5] = test: Minimum inhibitory concentration required to effect a microscopically visible change of cell morphology in HeLa cell culture.; assay type: functional, Homo sapiens; parameters: unit not given here
# FM3A = test: cells; details: Mus musculus
# Adenosylhomocysteinase [6] = molecular target: T1, Adenosylhomocysteinase; remark: listed apart in the source
# Target sequence in this assay (P23526 2-432 limits assumed): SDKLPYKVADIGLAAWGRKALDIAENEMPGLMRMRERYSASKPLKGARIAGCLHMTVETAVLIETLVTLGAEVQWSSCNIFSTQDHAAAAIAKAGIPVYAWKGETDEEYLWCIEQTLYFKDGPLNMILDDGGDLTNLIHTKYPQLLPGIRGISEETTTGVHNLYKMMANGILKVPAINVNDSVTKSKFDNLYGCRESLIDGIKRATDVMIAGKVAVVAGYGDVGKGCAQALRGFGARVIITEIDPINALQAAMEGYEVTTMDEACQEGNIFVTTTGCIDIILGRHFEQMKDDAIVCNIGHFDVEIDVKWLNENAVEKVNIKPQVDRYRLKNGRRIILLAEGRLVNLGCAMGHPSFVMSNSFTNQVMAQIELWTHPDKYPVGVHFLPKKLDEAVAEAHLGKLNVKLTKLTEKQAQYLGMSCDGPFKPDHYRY
# HeLa [7] = test: cells; details: Homo sapiens
# Human alphaherpesvirus 1 [8] = test: microbe, parasite or virus in culture
# MOLT-4 = test: cells; details: Homo sapiens
# Vero [9] = test: cells; details: Chlorocebus sabaeus; remark: listed apart in the source
# Vero [10] = test: cells; details: Chlorocebus sabaeus; remark: listed apart in the source
# E6SM = test: Minimum inhibitory concentration required to effect a microscopically visible change of cell morphology in human embryonic skin-muscle (E6SM) cell culture.; assay type: functional; parameters: unit not given here
# Human alphaherpesvirus 1 [11] = test: microbe, parasite or virus in culture; remark: listed apart in the source
# Vero [12] = test: Minimum inhibitory concentration required to effect a microscopically visible change of cell morphology in Vero cell culture.; assay type: functional, Chlorocebus sabaeus; parameters: unit not given here
# Vero [13] = test: cells; details: Chlorocebus sabaeus; remark: listed apart in the source
# Vero [14] = test: cells; details: Chlorocebus sabaeus; remark: listed apart in the source
# HeLa [15] = test: cells; details: Homo sapiens; remark: listed apart in the source
# L1210 = test: cells; details: Mus musculus
# MDCK [16] = assay type: functional, Canis lupus familiaris; parameters: unit not given here
# Human betaherpesvirus 5 [17] = test: microbe, parasite or virus in culture; remark: listed apart in the source
# Human alphaherpesvirus 2 = test: microbe, parasite or virus in culture
# MDCK [18] = test: cells; details: Canis lupus familiaris
# MDCK [19] = test: cells; details: Canis lupus familiaris; remark: listed apart in the source
# HEL = test: 50% Cytostatic concentration required to inhibit human erythroleukemic (HEL) cell proliferation; assay type: functional; parameters: unit not given here
# Vero [20] = test: cells; details: Chlorocebus sabaeus; remark: listed apart in the source
# Human alphaherpesvirus 1 [21] = test: microbe, parasite or virus in culture; remark: listed apart in the source
# Human alphaherpesvirus 1 [22] = test: microbe, parasite or virus in culture; remark: listed apart in the source
# Human alphaherpesvirus 1 [23] = test: microbe, parasite or virus in culture; remark: listed apart in the source
compound,measurement,setting,value
CO/N=C/[C@H]1OC(n2cnc3c(N)ncnc32)[C@H](O)[C@@H]1O (some centres not stated),IC50,CCRF-CEM,330 mg/L
same,EC50,Vero [1],150 mg/L
same,EC50,Human betaherpesvirus 5 [2],> 10 mg/L
same,EC50,[3],> 200 mg/L
same,Ki,Adenosylhomocysteinase [4],0.0946 µM
same,MIC,HeLa [5],>200
same,IC50,FM3A,19 mg/L
same,k2,Adenosylhomocysteinase [6],0.048 min⁻¹
same,EC50,HeLa [7],> 200 mg/L
same,EC50,Human alphaherpesvirus 1 [8],> 200 mg/L
same,IC50,MOLT-4,218 mg/L
same,EC50,Vero [9],> 100 mg/L
same,EC50,Vero [10],> 100 mg/L
same,MIC,E6SM,400
same,EC50,Human alphaherpesvirus 1 [11],> 200 mg/L
same,EC50,Vaccinia virus,100 mg/L
same,MIC,Vero [12],>200
same,EC50,Vero [13],> 100 mg/L
same,EC50,Vero [14],> 100 mg/L
same,EC50,HeLa [15],> 200 mg/L
same,IC50,L1210,271 mg/L
same,MIC,MDCK [16],20
same,EC50,Human betaherpesvirus 5 [17],> 10 mg/L
same,EC50,Human alphaherpesvirus 2,> 200 mg/L
same,EC50,MDCK [18],4 mg/L
same,EC50,MDCK [19],0.8 mg/L
same,CC50,HEL,>50
same,EC50,Vero [20],> 100 mg/L
same,EC50,Human alphaherpesvirus 1 [21],> 200 mg/L
Nc1ncnc2c1ncn2C1OC(C=O)CC1O (configuration not stated),IC50,CCRF-CEM,> 200 mg/L
same,EC50,Vero [1],> 400 mg/L
same,EC50,Human betaherpesvirus 5 [2],> 40 mg/L
same,IC50,FM3A,> 200 mg/L
same,IC50,MOLT-4,> 200 mg/L
same,EC50,Vero [9],> 200 mg/L
same,EC50,Human alphaherpesvirus 1 [22],> 400 mg/L
same,MIC,E6SM,>400
same,EC50,Human alphaherpesvirus 1 [11],> 400 mg/L
same,EC50,Vaccinia virus,> 400 mg/L
same,EC50,Vero [13],> 200 mg/L
same,EC50,Human alphaherpesvirus 1 [23],> 100 mg/L
same,EC50,Vero [14],> 200 mg/L
same,IC50,L1210,> 200 mg/L
same,EC50,Human betaherpesvirus 5 [17],> 40 mg/L
same,EC50,Human alphaherpesvirus 2,> 400 mg/L
same,CC50,HEL,>50
same,EC50,Vero [20],> 400 mg/L
Nc1ncnc2c1ncn2[C@@H]1O[C@@H](C=O)[C@@H](O)[C@H]1O,Ki,Adenosylhomocysteinase [4],0.043 µM
same,k2,Adenosylhomocysteinase [6],0.22 min⁻¹
Nc1ncnc2c1ncn2C1O[C@H](/C=N/OCc2ccccc2)[C@@H](O)[C@H]1O (some centres not stated),IC50,CCRF-CEM,136 mg/L
same,EC50,Vero [1],> 40 mg/L
same,EC50,Human betaherpesvirus 5 [2],> 10 mg/L
same,EC50,[3],> 200 mg/L
same,Ki,Adenosylhomocysteinase [4],0.101 µM
same,MIC,HeLa [5],>200
same,IC50,FM3A,340 mg/L
same,k2,Adenosylhomocysteinase [6],0.036 min⁻¹
same,EC50,HeLa [7],> 200 mg/L
same,IC50,MOLT-4,118 mg/L
same,EC50,Vero [9],> 100 mg/L
same,EC50,Human alphaherpesvirus 1 [22],> 40 mg/L
same,EC50,Vero [10],> 100 mg/L
same,MIC,E6SM,100
same,EC50,Human alphaherpesvirus 1 [11],> 40 mg/L
same,EC50,Vaccinia virus,2 mg/L
same,MIC,Vero [12],>200
same,EC50,Vero [13],> 100 mg/L
same,EC50,Human alphaherpesvirus 1 [23],> 40 mg/L
same,EC50,Vero [14],> 100 mg/L
same,EC50,HeLa [15],> 200 mg/L
same,IC50,L1210,187 mg/L
same,MIC,MDCK [16],100
same,EC50,Human betaherpesvirus 5 [17],> 10 mg/L
same,EC50,Human alphaherpesvirus 2,> 40 mg/L
same,EC50,MDCK [18],20 mg/L
same,EC50,MDCK [19],20 mg/L
same,CC50,HEL,33
same,EC50,Vero [20],> 100 mg/L
Nc1ncnc2c1ncn2[C@@H]1O[C@@H](C=NO)[C@@H](O)[C@H]1O,Ki,Adenosylhomocysteinase [4],0.224 µM
same,k2,Adenosylhomocysteinase [6],0.13 min⁻¹
Nc1ncnc2c1ncn2[C@@H]1O[C@H](C=O)[C@@H](O)[C@H]1O,IC50,CCRF-CEM,7.3 mg/L
same,EC50,Vero [1],300 mg/L
same,EC50,Human betaherpesvirus 5 [2],> 40 mg/L
same,IC50,FM3A,15 mg/L
same,IC50,MOLT-4,41.5 mg/L
same,EC50,Vero [9],> 200 mg/L
same,EC50,Human alphaherpesvirus 1 [22],> 400 mg/L
same,MIC,E6SM,>400
same,EC50,Human alphaherpesvirus 1 [11],> 400 mg/L
same,EC50,Vaccinia virus,70 mg/L
same,EC50,Vero [13],> 200 mg/L
same,EC50,Human alphaherpesvirus 1 [23],> 400 mg/L
same,EC50,Vero [14],> 200 mg/L
same,IC50,L1210,9.71 mg/L
same,EC50,Human betaherpesvirus 5 [17],> 40 mg/L
same,EC50,Human alphaherpesvirus 2,> 400 mg/L
same,CC50,HEL,>50
same,EC50,Vero [20],> 200 mg/L
Nc1ncnc2c1ncn2C[C@H](O)CO [(S)-DHPA],EC50,Vero [1],20 mg/L
same,EC50,Vero [9],> 400 mg/L
same,EC50,Human alphaherpesvirus 1 [22],> 40 mg/L
same,MIC,E6SM,>400
same,EC50,Human alphaherpesvirus 1 [11],> 400 mg/L
same,EC50,Vaccinia virus,20 mg/L
same,EC50,Vero [13],> 400 mg/L
same,EC50,Human alphaherpesvirus 1 [23],> 400 mg/L
same,EC50,Vero [14],70 mg/L
same,EC50,Human alphaherpesvirus 2,> 400 mg/L
same,EC50,Vero [20],70 mg/L
Nc1ccnc2c1ncn2[C@@H]1O[C@H](CO)[C@@H](O)[C@H]1O,EC50,Vero [1],0.7 mg/L
same,EC50,Vero [9],> 400 mg/L
same,EC50,Human alphaherpesvirus 1 [22],40 mg/L
same,MIC,E6SM,>400
same,EC50,Human alphaherpesvirus 1 [11],> 400 mg/L
same,EC50,Vaccinia virus,0.7 mg/L
same,EC50,Vero [13],4 mg/L
same,EC50,Human alphaherpesvirus 1 [23],> 400 mg/L
same,EC50,Vero [14],4 mg/L
same,EC50,Human alphaherpesvirus 2,> 400 mg/L
same,EC50,Vero [20],0.2 mg/L
Nc1ncnc2c1ncn2C1OC(/C=N/O)CC1O (configuration not stated),IC50,CCRF-CEM,185 mg/L
same,EC50,Vero [1],> 400 mg/L
same,EC50,Human betaherpesvirus 5 [2],40 mg/L
same,IC50,FM3A,> 200 mg/L
same,IC50,MOLT-4,> 200 mg/L
same,EC50,Vero [9],> 400 mg/L
same,EC50,Human alphaherpesvirus 1 [22],> 400 mg/L
same,MIC,E6SM,>400
same,EC50,Human alphaherpesvirus 1 [11],> 400 mg/L
same,EC50,Vaccinia virus,300 mg/L
same,EC50,Vero [13],> 400 mg/L
same,EC50,Human alphaherpesvirus 1 [23],> 400 mg/L
same,EC50,Vero [14],300 mg/L
same,IC50,L1210,180 mg/L
same,EC50,Human betaherpesvirus 5 [17],10 mg/L
same,EC50,Human alphaherpesvirus 2,> 400 mg/L
same,CC50,HEL,>50
same,EC50,Vero [20],> 400 mg/L
Nc1ncnc2c1ncn2C1CC(O)C(/C=N/O)O1 (configuration not stated),IC50,CCRF-CEM,13.8 mg/L
same,EC50,Vero [1],> 100 mg/L
same,EC50,Human betaherpesvirus 5 [2],1 mg/L
same,IC50,FM3A,11.2 mg/L
same,IC50,MOLT-4,17 mg/L
same,EC50,Vero [9],> 100 mg/L
same,EC50,Human alphaherpesvirus 1 [22],> 100 mg/L
same,MIC,E6SM,200
same,EC50,Human alphaherpesvirus 1 [11],> 100 mg/L
same,EC50,Vaccinia virus,> 100 mg/L
same,EC50,Vero [13],> 100 mg/L
same,EC50,Human alphaherpesvirus 1 [23],> 100 mg/L
same,EC50,Vero [14],> 100 mg/L
same,IC50,L1210,4.6 mg/L
same,EC50,Human betaherpesvirus 5 [17],0.6 mg/L
same,EC50,Human alphaherpesvirus 2,> 100 mg/L
same,CC50,HEL,14
same,EC50,Vero [20],> 100 mg/L
Nc1ncnc2c1ncn2C1CC(O)C(C=O)O1 (configuration not stated),IC50,CCRF-CEM,17.8 mg/L
same,EC50,Vero [1],> 400 mg/L
same,EC50,Human betaherpesvirus 5 [2],> 40 mg/L
same,IC50,FM3A,50.9 mg/L
same,IC50,MOLT-4,4.96 mg/L
same,EC50,Vero [9],> 200 mg/L
same,EC50,Human alphaherpesvirus 1 [22],> 400 mg/L
same,MIC,E6SM,>400
same,EC50,Human alphaherpesvirus 1 [11],> 400 mg/L
same,EC50,Vaccinia virus,> 400 mg/L
same,EC50,Vero [13],> 200 mg/L
same,EC50,Human alphaherpesvirus 1 [23],> 400 mg/L
same,EC50,Vero [14],> 200 mg/L
same,IC50,L1210,6.64 mg/L
same,EC50,Human betaherpesvirus 5 [17],> 40 mg/L
same,EC50,Human alphaherpesvirus 2,> 400 mg/L
same,CC50,HEL,>50
same,EC50,Vero [20],70 mg/L
Nc1ncnc2c1ncn2C1O[C@H](C(O)O)[C@@H](O)[C@@H]1O (some centres not stated),IC50,CCRF-CEM,118 mg/L
same,EC50,Vero [1],> 400 mg/L
same,EC50,Human betaherpesvirus 5 [2],> 40 mg/L
same,IC50,FM3A,125 mg/L
same,EC50,Human alphaherpesvirus 1 [8],> 400 mg/L
same,IC50,MOLT-4,> 200 mg/L
same,EC50,Vero [9],> 200 mg/L
same,MIC,E6SM,>400
same,EC50,Human alphaherpesvirus 1 [11],300 mg/L
same,EC50,Vaccinia virus,20 mg/L
same,EC50,Vero [13],> 200 mg/L
same,EC50,Vero [14],300 mg/L
same,IC50,L1210,156 mg/L
same,EC50,Human betaherpesvirus 5 [17],> 40 mg/L
same,EC50,Human alphaherpesvirus 2,> 400 mg/L
same,CC50,HEL,>50
same,EC50,Vero [20],150 mg/L
same,EC50,Human alphaherpesvirus 1 [21],> 400 mg/L
